Molecules are shown by their SMILES. “Also recorded” adds a separate entry of the source.

We go through 16 compounds from patent publication US9688653B2, “Ethoxyphenyl thienyl compounds and methods for the treatment of bacterial infections” (Duke University, priority 2013, dated 2017).

Data set [1] is described as follows: Thiol stability (glutathione, DTT). Type of data set: physicochemical. The note with it: 10 μM compound, PBS pH 7.4, room temperature, eight hours. As to the method: Compounds were dissolved at 10 μM in PBS at pH 7.4 (1% DMSO) and incubated at room temperature with either no thiol source as a negative control, 50 μM glutathione (GSH), or 50 μM dithiothreitol (DTT). The mixtures were sampled every hour for eight hours and analyzed by RP HPLC/UV/HRMS. The analytical RP HPLCUV/HRMS system utilized for the analysis was a Waters Acquity system with UV-detection and mass-detection (Waters LCT Premier). The analytical method conditions included a Waters Acquity HSS T3 C18 column (2.1×50 mm, 1.8 um) and elution with a linear gradient of 1% water to 100% CH3CN at 0.6 mL/min flow rate. Peaks on the 214 nm chromatographs were integrated using the Waters OpenLynx software. Absolute areas under the curve were compared at each time point to determine relative percent compound remaining. The masses of potential adducts were searched for in the final samples to determine if any detectable adduct formed. All samples were prepared in duplicate (FIG. 5). Ethacrynic acid, a known Michael acceptor, was used as a positive control. If solubility of the compound was an issue at 10 μM, PBS was substituted with PBS with 50% acetonitrile (35).

For data set [2], the system named is E. coli K1 strain UTI89. As to the kind of experiment: microbe, parasite or virus in culture. A digest of the protocol: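 UTI89 cultures in LB with 0.5% DMSO were preincubated 2 hr at 37 °C with compounds (100 μM in screen), then with K1F phage a further 2 hr. Viability was read as Alamar Blue fluorescence. Phage-lysis inhibition is relative to plate bacterial controls; IC50 by 4-parameter fit locked at 0 and 100.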

In data set [3] the test system is E. coli K1 strain UTI89. Briefly: Secondary assay 2: T7 phage-mediated lysis assay. The conditions noted are these: read-out: T7 phage IC50. Type of data set: cell-based, Escherichia coli. The essentials:
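E. coli K1 UTI89 shaken 1.5 h with compound (100–0.39 μM, quadruplicate, 1% DMSO), initial OD600 taken to flag growth effects without phage. T7 phage, whose entry is blocked by K capsule, then added; OD600 lysis read after 3 h at 37 °C, greater lysis indicating less capsule.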

The nature of data set [4]: Cytotoxicity counterscreen, CellTiter Glo, 72 hr. Type of data set: cell-based, human. The note with it: human, bladder carcinoma 5637 cells (ATCC HTB-9), five probe analogues. The essentials: (§1)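 5637 bladder carcinoma cells were exposed to a 10-point compound series (300-0.58 μM, 0.5% DMSO) for 72 h. Viability was measured by CellTiter-Glo luminescence, and TC50 (CC50) was derived, with Hyamine as cytotoxic control.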
On the technique in general: The purpose of a counterscreen is to sort out artefacts and off-target activity.

For data set [5], the system named is K1 antigen of UTI89. Briefly: K1 antigen whole-cell dot blot with anti-K1 serum. Type of data set: cell-based, Escherichia coli. The conditions noted are these: 100 μM. As to the method:
K1 antigen dot blot. K1 antigen was detected by dot blot assays of culture extracts probed with anti-K1 H46 serum. The assay was performed as previously described. The experiment was repeated twice with similar results, and a representative dot blot is shown.

For data set [6], the system named is E. coli UTI89. As to the kind of experiment: Human serum sensitization (MTT). Type of data set: cell-based, Escherichia coli. The note with it: 50 μM compound, p=0.0067 versus control. As for the experimental part: Human serum sensitization by capsule inhibitor treatment. Overnight cultures of UTI89 were diluted 1:100 and grown with or without 50 μM compound for approximately 1.5 hrs on a shaker at 37° C. Then 25 μL of anonymous, non-identified, sterile filtered pooled human serum (purchased from Equitech Bio) was added per 100 μL of growth media. This was returned to the shaker for another 3 hrs, after which 20 μL of 5 mg/mL MTT (3-(4,5-Dimethylthiazol-2-yl)-2,5-diphenyltetrazolium bromide) was added. MTT is reduced to purple formazan by bacterial reductase enzymes, thus measuring viable bacteria. This was shaken for another 15 min at 37° C. The sample was spun to remove the growth media, followed by two washes with PBS. The formazan crystals were dissolved in 100 μL of DMSO and measured at OD570.

In data set [7] the test system is K1 capsule of UTI89. As to the kind of experiment: Secondary assay 3: orcinol assay for released K1 capsule polysaccharide. Format: cell-based, Escherichia coli. The conditions noted are these: 100 μM, K1 strain UTI89. As to the method:
E. Secondary Assay 3: Orcinol Secondary Screening for Inhibitors of Bacterial Capsule Biogenesis.
Purpose: This assay was performed only on the probe candidate. […] The biochemical determination of cell-surface associated capsule was performed using UTI89 or the Delta Region I and Delta Region II capsule mutant bacterial strains.
Purpose: This assay was performed only on the probe candidate. […] The biochemical determination of cell-surface associated capsule was performed using UTI89 or the delta Region I and Region II capsule mutant bacterial strains.
Assay Description: The biochemical measurement of cell-surface associated capsule was performed. UTI89 or capsule mutants were grown in culture tubes with and without the test compound (50 μM). The cultures were centrifuged, and the cell pellets were washed in PBS and resuspended in Tris buffer, pH5. […] Released polysaccharide was harvested by separation from whole bacteria by centrifugation followed by deproteination with phenol/chloroform and precipitation with ethanol. The precipitated material was subjected to acid hydrolysis (pH 2 at 80° C. for 1 hr) and incubated with orcinol, which reacts with periodic intermediates to produce a violet color quantified at OD 570 (3) Inhibitors reducing or abrogating surface encapsulation yielded low orcinol levels similar to the capsule export and synthesis mutants (Region I and II). The positive control drug C7 (100 μM final well concentration) was used in this screen.
Endpoint Read: The samples were read at ambient temperature from the bottom for absorbance at A570 in a BioTek Quantplate reader and the degree of orcinol-reactive material was determined based on the absorbance compared to a wild-type encapsulated strain (UTI89) and a standard curve using purified sialic acid.
Orcinol assay for released capsule material. Orcinol reactivity was used as a biochemical confirmation of altered extracellular capsule after compound treatment. UTI89 or an isogenic capsule mutant was grown in 100 μM of test compound or 1% DMSO. The assay was performed as previously described. The molecule C7 (100 μM final concentration) was used as a positive control. The assay was performed 3 times with replicate samples.

Data set [8] addresses norepinephrine transporter (Homo sapiens, UniProt P23975). Briefly: LeadProfilingScreen, single target. Type of data set: binding. The conditions noted are these: duplicate. As to the method: Evaluation of off-target effects. Off target effects of lead molecules of interest were evaluated using the LeadProfilingScreen commercial assay at Eurofins Panlabs (Bothell, Wash.). Reference standards were run as an integral part of each assay to ensure the validity of the results obtained. Assay results are presented as the percent inhibition of specific binding or activity (for n=2 replicates) for the probe compound tested at a concentration of 10 μM. Details regarding the individual assays and methods are provided in Supplementary Information File 51.
DU003 & DU011 are biologically selective. DU003 and DU011 were submitted to the Eurofins Panlabs LeadProfilingScreen to assess off-target pharmacology 1421. […] In review of PubChem data, DU011 (CID23602075) is reported to have shown activity in only 21 of 467 (4.5%, as of Sep. 5, 2013) bioassays in which it was tested (assays unrelated to the current project). Per PubChem, DU003 (CID18109210) is reported to have shown activity in only 5 of 427 (1.2%, as of Sep. 5, 2013) bioassays in which it was tested (assays unrelated to the current project).

In data set [9] the test system is panel of 68 receptors. The note with it: 10 μM, duplicate; upper bound over all targets.
For data set [10], the system named is Bladder carcinoma 5637 cells. As to the kind of experiment: Cytotoxicity counterscreen, CellTiter Glo, 72 hr. Type of data set: cell-based, human. A digest of the protocol:
as §1

Setting [11] is: Escherichia coli, read-out: K1 phage IC50, five probe analogues.
[12] abbreviates: Escherichia coli, five probe analogues.
The mark [13] stands for this setting: Escherichia coli, read-out: K1 phage IC50 (inhibition of K1 capsule formation).
Setting [14] is: read-out: K1 phage IC50, second round of synthetic analogues, n = 3.
The mark [15] stands for this setting: second round of synthetic analogues, n = 2.
Setting [16] is: read-out: K1 phage IC50, first round of synthetic analogues, n = 3.
[17] abbreviates: first round of synthetic analogues, n = 2.

Chain of norepinephrine transporter (P23975 whole entry): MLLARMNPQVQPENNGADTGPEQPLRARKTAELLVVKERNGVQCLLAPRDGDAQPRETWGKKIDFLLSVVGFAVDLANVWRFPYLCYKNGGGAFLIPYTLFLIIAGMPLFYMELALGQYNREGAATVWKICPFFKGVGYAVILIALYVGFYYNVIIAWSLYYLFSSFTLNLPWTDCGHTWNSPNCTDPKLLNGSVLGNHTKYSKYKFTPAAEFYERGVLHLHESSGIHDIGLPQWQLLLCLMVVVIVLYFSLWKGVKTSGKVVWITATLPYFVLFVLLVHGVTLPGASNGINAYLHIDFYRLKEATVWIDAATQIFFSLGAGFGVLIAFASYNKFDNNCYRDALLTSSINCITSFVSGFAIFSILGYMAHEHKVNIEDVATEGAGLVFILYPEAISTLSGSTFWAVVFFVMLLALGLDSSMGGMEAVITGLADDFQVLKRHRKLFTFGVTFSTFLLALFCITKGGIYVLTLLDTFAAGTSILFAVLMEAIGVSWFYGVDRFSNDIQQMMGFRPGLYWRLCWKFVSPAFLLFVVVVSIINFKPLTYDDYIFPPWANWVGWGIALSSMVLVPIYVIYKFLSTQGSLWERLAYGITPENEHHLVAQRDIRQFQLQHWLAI

As for `C=C(CC)C(=O)c1ccc(OCC(=O)O)c(Cl)c1Cl` [ethacrynic acid, Ethacrynic acid], the “Stability to DTT” value in data set [1] (50 μM DTT) is “even more rapidly”. Further, the Stability to glutathione entry in data set [1] (50 μM GSH) was “react rapidly”.
Consider `CCOc1ccc(-c2cc(NC(=O)c3ccc(Br)s3)c(C(=O)O)s2)cc1` [CID 53470415, 3-(5-Bromothiophene-2-carboxamido)-5-(4-ethoxyphenyl)thiophene-2-carboxylic acid], for which the IC50 – broadly, the concentration that gives 50% inhibition – in [2] (setting [11]) amounted to 17 ± 4.49 µM; in [3] (setting [12]) it was 3.33 µM. For the same compound, the Selectivity in [2] (five probe analogues) was determined as 2.92. In addition, in data set [4], half-maximal inhibition (IC50 at 72 h) required 49.7 ± 6.49 µM.
With `O=C(Nc1ccncc1)c1ccc2ncsc2c1` [DU003, N-pyridin-4-yl-1,3-benzothiazole-6-carboxamide], the “Whole-cell anti-K1 dot blot reactivity” value in data set [5] is on record as “reduces K1 reactive material to levels comparable to those of genetic capsule mutants”. For the same compound, in data set [6], the “Sensitivity of UTI89 to pooled human serum (MTT)” value is on record as “further increased serum-mediated killing; also recorded: significantly more sensitive”. Also, the “Reduction of orcinol-reactive polysaccharides on surface of bacteria” value in data set [7] is given as around 80%. Also, in data set [8], 10 µM produced 58% inhibition. For the same compound, the “Inhibition across off-target panel” value in [9] is below 30%.
With `COc1ccc(-c2cc(NC(=O)c3ccc(Br)o3)c(C(=O)O)s2)cc1` [CID 53470446, 3-(5-Bromofuran-2-carboxamido)-5-(4-methoxyphenyl)thiophene-2-carboxylic acid], the values for the half-maximal inhibitory concentration (IC50) in data set [2] (setting [13]), in data set [2] (setting [11]) and in [3] (setting [12]) were 11.1 µM, 11.1 ± 3.33 µM and 1.24 µM, respectively. Besides, in [2] (five probe analogues), the Selectivity stood at 4.55. Besides, the IC50 at 72 h in [4] turned out to be 50.5 ± 0.52 µM.
With `O=C(O)c1sc(-c2ccc(OCCC(F)(F)F)cc2)cc1NC(=O)c1c(F)cccc1F` [compound 56643020], the results for the IC50 in [2] (setting [14]), in [3] (setting [15]) and in [10] were 0.84 µM, below 0.0156 µM and 68.4 µM, respectively.
With `O=C(O)c1sc(-c2ccc(OC(F)(F)F)cc2)cc1NC(=O)c1c(F)cccc1F` [CID 53495055, 3-(2,6-Difluorobenzamido)-5-(4-(trifluoromethoxy)phenyl)thiophene-2-carboxylic acid], the half-inhibitory concentration (IC50) stood at 13 µM in [2] (setting [13]), 13 ± 4.6 µM in [2] (setting [11]) and 1.35 µM in [3] (setting [12]). The Selectivity in data set [2] (five probe analogues) amounted to 3.91. The IC50 at 72 h in [4] came to 51 ± 2.62 µM.
For `O=C(Nc1cc(-c2ccc(OCCC(F)(F)F)cc2)sc1C(=O)O)c1ccc(Br)o1` [CID 56643022], the IC50 is 0.84 µM in [2] (read-out: K1 phage IC50, five probe analogues); below 0.625 µM in data set [3] (five probe analogues); 41.7 µM in data set [10].
For the compound `O=C(O)c1sc(-c2ccc(OC(F)(F)F)cc2)cc1NC(=O)c1c(F)cccc1F` [compound 53495055], the concentration for half-maximal inhibition (IC50) in data set [2] (setting [16]) was 13 µM; in [3] (setting [17]) it was 1.35 µM; in [10], 51 µM.
As for `O=C(Nc1cc(-c2ccc(C(F)(F)F)cc2)sc1C(=O)O)c1cc2ccccc2o1` [CID 53470417, 3-(Benzofuran-2-carboxamido)-5-(4-(trifluoromethyl)phenyl)thiophene-2-carboxylic acid], the IC50 in data set [2] (setting [11]) is above 100 µM; in data set [3] (setting [12]), 14.1 µM. Also, the 50% inhibitory concentration (IC50) at 72 h in [4] was determined as 72.1 µM.
Turning to `Cc1ccc(-c2cc(NC(=O)c3c(F)cccc3F)c(C(=O)O)s2)cc1` [compound 53470422], the IC50 turned out to be 40.3 µM in data set [2] (setting [16]), 2.43 µM in data set [3] (setting [17]) and 57.3 µM in data set [10].
Consider `O=C(O)c1sc(-c2ccc(OCC(F)(F)F)cc2)cc1NC(=O)c1c(F)cc(F)cc1F` [compound 56643012], for which the concentration for half-maximal inhibition (IC50) in [2] (setting [14]) was 94.9 µM; in [3] (setting [15]), 2.5 to 5 µM; in [10], 161 µM.
As to `O=C(O)c1sc(-c2ccc(OCCC(F)(F)F)cc2)cc1NC(=O)c1c(F)cccc1F` [CID 56643020], the figures for the half-inhibitory concentration (IC50) in data set [2] (read-out: K1 phage IC50 (inhibition of K1 capsule formation)) and in data set [3] were 0.84 µM and below 0.156 µM, respectively. Moreover, the “Cytotoxicity CC50 / TC50 / IC50” value in data set [10] (bladder carcinoma 5637 cells) came to 68.41 µM.
For the compound `O=C(Nc1cc(-c2ccc(OC(F)(F)F)cc2)sc1C(=O)O)c1cccc(F)c1` [compound 53495056], the IC50 in data set [2] (setting [16]) is above 100 µM; in data set [3] (setting [17]) it was above 5 µM; in data set [10] it was 52.1 µM.
With `O=C(Nc1cc(-c2ccc(OCCC(F)(F)F)cc2)sc1C(=O)O)c1ccc(Br)o1` [compound 56643022], the half-maximal inhibitory concentration (IC50) in [2] (setting [14]) was 0.84 µM; in data set [3] (setting [15]), below 0.625 µM; in [10], 41.7 µM.
Take `Cc1ccc(-c2cc(NC(=O)c3ccc(Br)o3)c(C(=O)O)s2)cc1` [compound 53470423]: the results for the half-maximal inhibitory concentration (IC50) in data set [2] (setting [16]), in [3] (setting [17]) and in data set [10] were 15.7 µM, 1.01 µM and 50.7 µM, respectively.
`CCCc1ccc(-c2cc(NC(=O)c3c(F)cc(F)cc3F)c(C(=O)O)s2)cc1` [compound 56643011]: the IC50 in data set [2] (setting [14]) is 15.9 µM; in data set [3] (setting [15]), 2.5 to 5 µM; in [10], 69.9 µM.
